{"source": "paper PMC3629139", "about": "“A Powerful Molecular Engineering Tool Provided Efficient Chlamydomonas Mutants as Bio-Sensing Elements for Herbicides Detection” (PLoS ONE, 2013)", "assay_in_all_cases": "chlorophyll a fluorescence induction (OJIP), inhibition of 1-VJ (QA to QB electron transfer) in living algal cells", "assay_type_in_all_cases": "cell-based", "conditions_in_all_cases": "read-out: Atrazine / I50×10^-7 M / (±SE)", "key": {"[1]": {"target": "T1, photosystem II (PSII) D1 protein (Chlamydomonas reinhardtii, UniProt P07753, G207S)", "T1 construct": "gene psbA; full-length D1 from intronless psbA in the chloroplast, assembled in native PSII (with D2 and other subunits) in living algal cells; D1 mutants by ep-PCR of Ala153-Ala294 region and biolistic transformation of Del1", "text": "(§1) chlorophyll a fluorescence induction (OJIP), inhibition of 1-VJ (QA to QB electron transfer) in living algal cells on photosystem II (PSII) D1 protein"}, "[2]": {"target": "T2, photosystem II (PSII) D1 protein (Chlamydomonas reinhardtii, UniProt P07753, F211S/P162S)", "T2 construct": "gene psbA; full-length D1 from intronless psbA in the chloroplast, assembled in native PSII (with D2 and other subunits) in living algal cells; D1 mutants by ep-PCR of Ala153-Ala294 region and biolistic transformation of Del1", "text": "as §1"}, "[3]": {"target": "T3, photosystem II (PSII) D1 protein (Chlamydomonas reinhardtii, UniProt P07753)", "T3 construct": "gene psbA; full-length D1 from intronless psbA in the chloroplast, assembled in native PSII (with D2 and other subunits) in living algal cells; D1 mutants by ep-PCR of Ala153-Ala294 region and biolistic transformation of Del1", "text": "as §1"}, "[4]": {"target": "T4, photosystem II (PSII) D1 protein (Chlamydomonas reinhardtii, UniProt P07753, I281T)", "T4 construct": "gene psbA; full-length D1 from intronless psbA in the chloroplast, assembled in native PSII (with D2 and other subunits) in living algal cells; D1 mutants by ep-PCR of Ala153-Ala294 region and biolistic transformation of Del1", "text": "as §1"}, "[5]": {"target": "T5, photosystem II (PSII) D1 protein (Chlamydomonas reinhardtii, UniProt P07753, M172L)", "T5 construct": "gene psbA; full-length D1 from intronless psbA in the chloroplast, assembled in native PSII (with D2 and other subunits) in living algal cells; D1 mutants by ep-PCR of Ala153-Ala294 region and biolistic transformation of Del1", "text": "as §1"}, "[6]": {"target": "T6, photosystem II (PSII) D1 protein (Chlamydomonas reinhardtii, UniProt P07753, L200I)", "T6 construct": "gene psbA; full-length D1 from intronless psbA in the chloroplast, assembled in native PSII (with D2 and other subunits) in living algal cells; D1 mutants by ep-PCR of Ala153-Ala294 region and biolistic transformation of Del1", "text": "as §1"}}, "data": [{"smiles": "CCNc1nc(Cl)nc(NC(C)C)n1", "note": "[Atrazine, 2-chloro-4-(ethylamine)-6-(isopropylamine)-s-triazine]", "values": [{"measurement": "IC50", "setting": "[1]", "value": 210, "unit": "nM"}, {"measurement": "IC50", "setting": "[2]", "value": 1970, "unit": "nM"}, {"measurement": "IC50", "setting": "[3]", "value": 240, "unit": "nM"}, {"measurement": "IC50", "setting": "[4]", "value": 200, "unit": "nM"}, {"measurement": "IC50", "setting": "[5]", "value": 220, "unit": "nM"}, {"measurement": "IC50", "setting": "[6]", "value": 180, "unit": "nM"}]}]}
